{"source": "patent US20110191876A1", "about": "“GLYPHOSATE TOLERANT PERENNIAL RYEGRASS NAMED 'JACKLIN 501'” (J.R. SIMPLOT COMPANY, priority 2009, published 2011)", "test_system": "perennial ryegrass 96-3047", "test": "glyphosate applied at termination of the Maryland turf trial, plot survival", "type": "in vivo, Lolium perenne L.", "settings": "perennial ryegrass 96-3047 plot, Maryland trial 1999, glyphosate at 2-quarts per acre; only plot not killed", "from_the_text": "In 1999, during the termination of the Maryland trial, 96-3047 was the only plot in the trial that was not killed when glyphosate at the rate of 2-quarts per acre was applied. Survival in the plot was estimated at 30% and plugs were pulled, coded as 99-0089, and 200 plants of 99-0089 were planted in an isolation block in the 1999 Post Falls, Id. nursery."}
{"molecule": "O=C(O)CNCP(=O)(O)O", "note": "[glyphosate, N-(phosphonomethyl) glycine]", "values": [{"measurement": "Survival in the plot", "value": "~30", "unit": "%"}]}
